This is an account of results in patent US4195183A, “ω-Nor-aromatic-13,14-dehydro-prostaglandins and process for their preparation” (Farmitalia Certo Erba S.p.A., priority 1976, dated 1980).

Test [1] deals with pregnant rat. The experiment in a line: luteolytic activity in the pregnant rat. The class given is in vivo. Particulars: pregnant rat at the 9th-10th day of pregnancy; relative to PGF2α (conventional value 1). An excerpt: The action selectivity of the compounds of the invention on the miometrium and on the reproductive apparatus is also proven by the remarkable increase of the luteolytic activity in the pregnant rat at the 9th-10th day of pregnancy. In fact, if the conventional value 1 is given to the luteolytic activity of PGF2α, the value of 100 at least is to be given to the luteolytic activity of 13,14-dehydro-17-phenyl-20,19,18-trinor-PGF2α, and the value of 200 to the luteolytic activity of 13,14-dehydro-16-p-fluorophenoxy-20,19,18,17-tetranor-PGF2α.

For test [2], the system named is oestrogenized rat uteri. The experiment in a line: rat uterus test (in vitro). Particulars: relative to PGF2α (conventional value 1), limits in brackets. The protocol:
(§1) In the Table the conventional value of 1 was given to the activity of PGF2α in both tests.
**In a 10 ml thermostatic bath held at 29° C., oestrogenized rat
uteri under 0.5 g traction were subjected to carbondioxide in a Dejalon
saline solution. The prepration was left to stabilize for 30 minutes
before the compounds were tested. Response was measured using a isotonic
frontal lever, long enough to amplify the response 4.5 times.

In test [3] the test system is guinea pig ileum. The test can be described thus: guinea pig ileum test (in vitro). Particulars: relative to PGF2α (conventional value 1), limits in brackets. The protocol: as §1
*In a 10 ml thermostatic bath held at 35° C., ilea of male guinea
pigs, under 0.5 g traction, were subjected to carbondioxide in a Tyrode
solution; the preparation was left for 30 minutes to stabilize before the
compounds were tested. The response was recorded using a isotonic frontal
lever, long enough to amplify the response 4.5 times.

In test [4] the test system is mares, cows, heifers and sowes. The test can be described thus: synchronizing the estrum / haematic progesterone levels in farm animals. Type of test: in vivo. Particulars: for haematic levels of progesterone: after administration of 0.5-3 ml of the 0.5 mg/ml solution; for ability of synchronizing the estrum: solution in aqueous isotonic buffered (pH 7.5) medium, 0.5 mg/ml, mares, cows, heifers and sowes.

For test [5], the target named is T1, 15-hydroxy-prostaglandin-dehydrogenase drawn from human placenta (Homo sapiens, UniProt P15428).
T1 construct: drawn from human placenta; from tissue; host or cells: human placenta
T1 sequence (P15428 1-266): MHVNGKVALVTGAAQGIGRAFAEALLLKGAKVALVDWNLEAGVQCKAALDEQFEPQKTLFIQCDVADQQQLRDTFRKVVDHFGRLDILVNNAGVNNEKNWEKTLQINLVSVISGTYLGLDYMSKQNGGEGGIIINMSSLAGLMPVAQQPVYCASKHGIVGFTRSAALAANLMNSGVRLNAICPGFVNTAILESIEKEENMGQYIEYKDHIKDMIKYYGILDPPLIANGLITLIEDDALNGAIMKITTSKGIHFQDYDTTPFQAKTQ
The test can be described thus: inhibition of 15-hydroxy-prostaglandin-dehydrogenase, in vitro. The class given is biochemical. Particulars: enzyme from human placenta; inhibition partially competitive with respect to PGF2α. An excerpt: The compounds of formula (I) furthermore inhibit the use of natural prostaglandins as substrate by the same enzyme.

On to `O=C(O)CCC/C=C\CC1C(O)CC(O)C1C#CC(O)COc1ccc(F)cc1` (stereo not drawn) [5c-9α,11α,15S-trihydroxy-20,19,18,17-tetranor-16-p-fluorophenoxy-prost-5-en-13-ynoic acid], for which the “luteolytic activity, PGF2α = 1” value in test [1] stood at 200. For the same compound, in test [2], the “Rat Uterus activity, PGF2α = 1” value is 1.91 (1.34-2.73). Further, the “Guinea Pig Ileum activity, PGF2α = 1” value in test [3] is listed as 0.50 (0.05-5).

For the compound `O=C([O-])CCC/C=C\CC1C(O)CC(O)C1C#CC(O)CCc1ccccc1.[Na+]` (stereo not drawn) [13,14-dehydro-17-phenyl-20,19,18-trinor-PGF2α], in test [4], the “haematic levels of progesterone” value is recorded as “pronounced downfall” and the “ability of synchronizing the estrum” value was “very good results”.

With `CO[C@H](C#C[C@@H]1[C@@H](C/C=C\CCCC(=O)O)[C@@H](O)C[C@H]1O)CCc1ccccc1` [5c-9α,11α-dihydroxy-15S-methoxy-20,19,18-trinor-17-phenyl-prost-5-en-13-ynoic acid], in test [2], the “Rat Uterus activity, PGF2α = 1” value came out at 4.4. Also, the “Guinea Pig Ileum activity, PGF2α = 1” value in test [3] turned out to be 0.05.

As for `O=C(O)CCC/C=C\C[C@@H]1[C@@H](/C=C/[C@@H](O)CCc2ccccc2)[C@H](O)C[C@@H]1O` [17-phenyl-20,19,18-trinor-PGF2α, 5c,13t-9α,11α,15S-trihydroxy-20,19,18-trinor-17-phenyl-prosta-5,13-dienoic acid, reference compound], the “Rat Uterus activity, PGF2α = 1” value in test [2] amounted to 1.54. The “Guinea Pig Ileum activity, PGF2α = 1” value in test [3] worked out at 2.34.

`CCCCC[C@H](O)/C=C/[C@@H]1[C@@H](C/C=C\CCCC(=O)O)[C@@H](O)C[C@H]1O` [PGF2α, reference compound]: in test [1], the “luteolytic activity, PGF2α = 1” value turned out to be 1. In addition, the “Rat Uterus activity, PGF2α = 1” value in test [2] worked out at 1. Moreover, the “Guinea Pig Ileum activity, PGF2α = 1” value in test [3] amounted to 1.

As for `O=C([O-])CCC/C=C\CC1C(O)CC(O)C1C#CC(O)COc1ccc(F)cc1.[Na+]` (stereo not drawn) [13,14-dehydro-16-p-fluorophenoxy-20,19,18,17-tetranor-PGF2α], in test [4], the “haematic levels of progesterone” value is on record as “pronounced downfall” and the “ability of synchronizing the estrum” value is “very good results”.

By Ki is commonly meant the equilibrium dissociation constant of an inhibitor or competing ligand from its target. A high value points to lower affinity. Turning to `O=C(O)CCC/C=C\C[C@@H]1[C@@H](C#C[C@@H](O)CCc2ccccc2)[C@H](O)C[C@@H]1O` [5c-9α,11α,15S-trihydroxy-20,19,18-trinor-17-phenyl-prost-5-en-13-ynoic acid], the “luteolytic activity, PGF2α = 1” value in test [1] is reported as at least 100. Also, the “Rat Uterus activity, PGF2α = 1” value in test [2] amounted to 22.74. In test [5], the affinity corresponds to a Ki of 130 µM. The “Guinea Pig Ileum activity, PGF2α = 1” value in test [3] is 0.6.

With `CCCCC[C@H](O)C#C[C@@H]1[C@@H](C/C=C\CCCC(=O)O)[C@@H](O)C[C@H]1O` [13,14-dehydro-PGF2α, reference compound], the “Rat Uterus activity, PGF2α = 1” value in test [2] came out at 1.09. In addition, the “Guinea Pig Ileum activity, PGF2α = 1” value in test [3] was 0.6.

For `O=C(O)CCC/C=C\CC1C(O)CC(O)C1C#CC(O)COc1cccc(C(F)(F)F)c1` (stereo not drawn) [5c-9α,11α,15S-trihydroxy-20,19,18,17-tetranor-16-m-trifluoromethylphenoxy-prost-5-en-13-ynoic acid], the “Rat Uterus activity, PGF2α = 1” value in test [2] is 3.86 (2.96-5.03). Besides, the “Guinea Pig Ileum activity, PGF2α = 1” value in test [3] is 0.50 (0.05-5).
